Where a name gives a salt, the structure may show the parent alone. Read-outs that look alike come from different tables or passages of the source.
Tested on: Mut6 cells (TD-NSC)
Experiment: luminescence-based Celltiter-Glo cell viability assay (ATP levels) on Mut6 tumor derived neuronal stem cells
Parameters: species or system mouse
Settings: ATP activity as measure of viability, 96 hours, read-out: EC50 (TD-NSC)
Text: A mouse colony with 100% incidence of GBM and with conditional knockout of p53, pTEN and NF1 genes (Mut6; glioblastoma) was used to isolate primary neuronal stem cells from GBM tumors cultured in 5% Oxygen and in serum free media with defined growth factors. Primary cells from multiple tumors were pooled for high throughput screening with controls against the University of Texas Southwestern (UTSW) compound file, which encompasses ˜200,000 synthetic compounds that represent a large chemical space from several commercial vendors, including 1200 marketed drugs from the Prestwick Chemical Library®, and 600 compounds that went to pre-clinical tests from the NIH library.
A luminescence-based Celltiter-Glo® assay was performed to measure cell viability, using ATP levels as the readout. In brief, opaque-walled multiwell plates with Mut6 cells in culture medium (25 μl per well, 384-well plates) were prepared. Control wells containing medium without cells were prepared to obtain a value for background luminescence. Test compounds were added to experimental wells, and incubated according to culture protocol. The plate and its contents were incubated at 37° C., 5% […] for 96 hours. An ATP standard curve was generated immediately prior to adding the CellTiter-Glo® Reagent. A volume of CellTiter-Glo® Reagent equal to the volume of cell culture medium present in each well (25 μl of reagent to 25 μl of medium containing cells for a 384-well plate) was added. The contents were mixed for 2 minutes on an orbital shaker to induce cell lysis. The plate was allowed to incubate at room temperature for 10 minutes to stabilize the luminescent signal and luminescence recorded. (e.g. GloMax®, Lumistar, SPECTROstar, PHERAstar FS).
Compound 4C12 served as initial lead compound for analog development and for additional studies. […] See Wager, T T et al, “Moving beyond rules: the development of a central nervous system multi-parameter-optimization (CNS MPO) approach to enable alignment of drug-like properties,” ACS Chem. Neurosci. 1(6): 435-49 (2010). IC50 curves for the analog compounds plotted as ATP activity (y axis, a measure of viability) vs. concentration (nM) (x-axis) are shown in FIG. 9.

| Compound | EC50 (Mus musculus, 96 h) [µM] | EC50 (Hydrochloride) [µM] |
| --- | --- | --- |
| CCN1CCCC1CNC(=O)c1ccc(Sc2ccc(C(F)(F)F)cc2)c([N+](=O)[O-])c1 (stereo not shown) [DS-1-065, N-((1-ethylpyrrolidin-2-yl)methyl)-3-nitro-4-((4-(trifluoromethyl)phenyl)thio)benzamide] | 0.086 |  |
| CCN1CCCC1CNC(=O)c1ccc(Sc2ccccc2C)c([N+](=O)[O-])c1 (stereo not shown) [JCH-114, N-((1-ethylpyrrolidin-2-yl)methyl)-3-nitro-4-(o-tolylthio)benzamide] | 0.078 |  |
| CCN1CCCC1CNC(=O)c1ccc(Sc2cccc3cccnc23)c([N+](=O)[O-])c1 (stereo not shown) [DS-1-269, N-((1-ethylpyrrolidin-2-yl)methyl)-3-nitro-4-(quinolin-8-ylthio)benzamide] | 0.535 |  |
| C#CCN(CC1CCCN1CC)C(=O)c1ccc(Sc2ccc(F)cc2)c([N+](=O)[O-])c1 (stereo not shown) [ww2-292, N-((1-ethylpyrrolidin-2-yl)methyl)-4-((4-fluorophenyl)thio)-3-nitro-N-(prop-2-yn-1-yl)benzamide] | 0.531 |  |
| CCN1CCCC1CNC(=O)c1ccc(Sc2ccccc2F)c([N+](=O)[O-])c1 (stereo not shown) [DS-1-075, N-((1-ethylpyrrolidin-2-yl)methyl)-4-((2-fluorophenyl)thio)-3-nitrobenzamide] | 0.102 |  |
| CCN1CCCC1CNC(=O)c1ccc(Sc2ccc(O)cc2)c([N+](=O)[O-])c1 (stereo not shown) [DS-1-217, N-((1-ethylpyrrolidin-2-yl)methyl)-4-((4-hydroxyphenyl)thio)-3-nitrobenzamide] | 0.485 |  |
| CCN1CCCC1CNC(=O)c1ccc(Sc2cc(Cl)cc(Cl)c2)c([N+](=O)[O-])c1 (stereo not shown) [JCH-124, 4-((3,5-dichlorophenyl)thio)-N-((1-ethylpyrrolidin-2-yl)methyl)-3-nitrobenzamide] | 0.51 |  |
| CCN1CCCC1CNC(=O)c1ccc(Sc2ccc(C(=O)O)cc2)c([N+](=O)[O-])c1 (stereo not shown) [DS-1-179, 4-((4-(((1-ethylpyrrolidin-2-yl)methyl)carbamoyl)-2-nitrophenyl)thio)benzoic Acid Hydrochloride] | > 1 |  |
| C#CCN(CC)CCNC(=O)c1ccc(Sc2ccc(N=[N+]=[N-])cc2)c([N+](=O)[O-])c1 [DS-2-091, 4-((4-azidophenyl)thio)-N-(2-(ethyl(prop-2-yn-1-yl)amino)ethyl)-3-nitrobenzamide] | > 1 |  |
| CCN1CCCC1CNC(=O)c1ccc(Nc2ccc(F)cc2)c([N+](=O)[O-])c1 (stereo not shown) [DS-1-105, N-((1-ethylpyrrolidin-2-yl)methyl)-4-((4-fluorophenyl)amino)-3-nitrobenzamide] | 0.255 |  |
| CCN1CCCC1CNC(=O)c1ccc(Sc2ccc(F)cc2)cc1 (stereo not shown) [DS-1-117, N-((1-ethylpyrrolidin-2-yl)methyl)-4-((4-fluorophenyl)thio)benzamide] | 0.394 |  |
| CCN1CCCC1CNC(=O)c1ccc(Sc2ccc(C(C)C)cc2)c([N+](=O)[O-])c1 (stereo not shown) [DS-1-123, N-((1-ethylpyrrolidin-2-yl)methyl)-4-((4-isopropylphenyl)thio)-3-nitrobenzamide] | 0.516 |  |
| CCN1CCCC1CN(C)C(=O)c1ccc(Sc2ccc(F)cc2)c([N+](=O)[O-])c1 (stereo not shown) [DS-2-061, N-((1-ethylpyrrolidin-2-yl)methyl)-4-((4-fluorophenyl)thio)-N-methyl-3-nitrobenzamide] | 0.015 |  |
| CCN1CCCC1CNC(=O)c1ccc(Sc2ccc(NC(C)=O)cc2)c([N+](=O)[O-])c1 (stereo not shown) [DS-1-077, 4-((4-acetamidophenyl)thio)-N-((1-ethylpyrrolidin-2-yl)methyl)-3-nitrobenzamide] | > 1 |  |
| CCN1CCCC1CNC(=O)c1ccc(Sc2ccc(Cl)c(C(F)(F)F)c2)c([N+](=O)[O-])c1 (stereo not shown) [DS-2-143, 4-((4-chloro-3-(trifluoromethyl)phenyl)thio)-N-((1-ethylpyrrolidin-2-yl)methyl)-3-nitrobenzamide] | 0.129 |  |
| CCN1CCCC1CNC(=O)c1ccc(Sc2ccccc2O)c([N+](=O)[O-])c1 (stereo not shown) [JCH-143, N-((1-ethylpyrrolidin-2-yl)methyl)-4-((2-hydroxyphenyl)thio)-3-nitrobenzamide] | 0.16 |  |
| CCN(CCO)CCNC(=O)c1ccc(Sc2ccc(F)cc2)c([N+](=O)[O-])c1 [ww3-62, N-(2-(ethyl(2-hydroxyethyl)amino)ethyl)-4-((4-fluorophenyl)thio)-3-nitrobenzamide] | 0.057 |  |
| CCN1CCCC1CNC(=O)c1ccc(Sc2ccc(F)cc2)c(C(N)=O)c1 (stereo not shown) [DS-1-231-M, N^1-((1-ethylpyrrolidin-2-yl)methyl)-4-((4-fluorophenyl)thio)isophthalamide] | > 1 |  |
| CCN1CCCC1CNC(=O)c1ccc(Sc2cccc(OC)c2)c([N+](=O)[O-])c1 (stereo not shown) [JCH-146, N-((1-ethylpyrrolidin-2-yl)methyl)-4-((3-methoxyphenyl)thio)-3-nitrobenzamide] | 0.185 |  |

The next lines start with the values.

| EC50 (Mus musculus, 96 h) [µM] | EC50 (Hydrochloride) [µM] | Compound |
| --- | --- | --- |
| 0.06 |  | CCN1CCCC1CNC(=O)c1ccc([N+](=O)[O-])c(Sc2ccc(F)cc2)c1 (stereo not shown) [DS-2-115, N-((1-ethylpyrrolidin-2-yl)methyl)-3-((4-fluorophenyl)thio)-4-nitrobenzamide] |
| 0.086 |  | CCN1CCCC1CNC(=O)c1ccc(Sc2cccc(C)c2)c([N+](=O)[O-])c1 (stereo not shown) [DS-1-305, N-((1-ethylpyrrolidin-2-yl)methyl)-3-nitro-4-(m-tolylthio)benzamide] |
| 0.05 |  | O=C(NCCN1CCCCC1)c1ccc(Sc2ccc(F)cc2)c([N+](=O)[O-])c1 [DS-2-125, 4-((4-fluorophenyl)thio)-3-nitro-N-(2-(piperidin-1-yl)ethyl)benzamide] |
| > 1 |  | CCN1CCCC1CNC(=O)c1ccc(OCc2ccc(C3(C(F)(F)F)N=N3)cc2)c([N+](=O)[O-])c1 (stereo not shown) [ww3-13] |
| 0.125 |  | CCN1CCCC1CNC(=O)c1ccc(Sc2ccc3ccccc3n2)c([N+](=O)[O-])c1 (stereo not shown) [JCH-127, N-((1-ethylpyrrolidin-2-yl)methyl)-3-nitro-4-(quinolin-2-ylthio)benzamide] |
|  | 0.044 | O=C(NCCN1CCOCC1)c1ccc(Sc2ccc(F)cc2)c([N+](=O)[O-])c1 [DS-1-241, 4-((4-fluorophenyl)thio)-N-(2-morpholinoethyl)-3-nitrobenzamide Hydrochloride] |
| 0.025 |  | O=C(NCCN1CCOCC1)c1ccc(Sc2ccc(F)cc2)c([N+](=O)[O-])c1 [DS-1-089, 4-((4-fluorophenyl)thio)-N-(2-morpholinoethyl)-3-nitrobenzamide] |
| > 1 |  | CCN1CCCC1COC(=O)c1ccc(Sc2ccc(F)cc2)c([N+](=O)[O-])c1 (stereo not shown) [DS-1-287, (1-ethylpyrrolidin-2-yl)methyl 4-((4-fluorophenyl)thio)-3-nitrobenzoate] |
| 0.055 |  | CCN1CCCC1CNC(=O)c1ccc(Sc2ccc(C)cc2)c([N+](=O)[O-])c1 (stereo not shown) [DS-1-271, N-((1-ethylpyrrolidin-2-yl)methyl)-3-nitro-4-(p-tolylthio)benzamide] |
| 0.192 |  | CCN1CCCC1CNC(=O)c1ccc(SC2CCCCC2)c([N+](=O)[O-])c1 (stereo not shown) [DS-1-139, 4-(cyclohexylthio)-N-((1-ethylpyrrolidin-2-yl)methyl)-3-nitrobenzamide] |
| > 1 |  | CN(CCN)CCNC(=O)c1ccc(Sc2ccc(F)cc2)c([N+](=O)[O-])c1 [DS-1-195, N-(2-((2-aminoethyl)(methyl)amino)ethyl)-4-((4-fluorophenyl)thio)-3-nitrobenzamide] |
|  | 0.059 | CCN(CC)CCNC(=O)c1ccc(Sc2ccc(F)cc2)c([N+](=O)[O-])c1 [DS-1-239, N-(2-(diethylamino)ethyl)-4-((4-fluorophenyl)thio)-3-nitrobenzamide Hydrochloride] |
| 0.419 |  | CCN1CCCC1CNC(=O)c1ccc(Sc2ccccn2)c([N+](=O)[O-])c1 (stereo not shown) [DS-1-071, N-((1-ethylpyrrolidin-2-yl)methyl)-3-nitro-4-(pyridin-2-ylthio)benzamide] |
| 0.139 |  | CCN1CCCC1CNC(=O)c1ccc(Sc2cccc(O)c2)c([N+](=O)[O-])c1 (stereo not shown) [JCH-140, N-((1-ethylpyrrolidin-2-yl)methyl)-4-((3-hydroxyphenyl)thio)-3-nitrobenzamide] |
| > 1 |  | CCN1CCCC1CNC(=O)c1ccc(-c2cccc(F)c2)c([N+](=O)[O-])c1 (stereo not shown) [DS-1-183, N-((1-ethylpyrrolidin-2-yl)methyl)-3′-fluoro-2-nitro-[1,1′-biphenyl]-4-carboxamide] |
| 0.062 |  | CCN1CCCC1CNC(=O)c1ccc(Sc2ccc(Br)cc2)c([N+](=O)[O-])c1 (stereo not shown) [DS-1-185, 4-((4-bromophenyl)thio)-N-((1-ethylpyrrolidin-2-yl)methyl)-3-nitrobenzamide] |
| 0.07 |  | CCN1CCCC1CNC(=O)c1ccc(Sc2cccc(Cl)c2)c([N+](=O)[O-])c1 (stereo not shown) [DS-1-295, 4-((3-chlorophenyl)thio)-N-((1-ethylpyrrolidin-2-yl)methyl)-3-nitrobenzamide] |
| 0.093 |  | CCN1CCCC1CNC(=O)c1ccc(Sc2ccc(Cl)c(Cl)c2)c([N+](=O)[O-])c1 (stereo not shown) [DS-1-291, 4-((3,4-dichlorophenyl)thio)-N-((1-ethylpyrrolidin-2-yl)methyl)-3-nitrobenzamide] |

— US11548894B2, “Benzamide or benzamine compounds useful as anticancer agents for the treatment of human cancers” (The Board of Regents of the University of Texas System, priority 2015, dated 2023)
